2 molecules from US20180078615A1, “USE OF CCL2 TO INHIBIT ABNORMAL UTERINE BLEEDING” (UNIVERSITY OF SOUTH FLORIDA, priority 2015, published 2018) can be followed below.

One test relates to VSMCs. The test can be described thus: qRT-PCR of H19, TMEM119, RARRES1 and CCL2 mRNA in cultured VSMCs. Type of test: cell-based, human. The note with it: vs control. The method, then: VSMCs were thawed and cultured in medium 231 (M231; Life Technologies) with smooth muscle growth supplement (5% FBS; 2 ng/mL human basic fibroblast growth factor, 0.5 ng/mL human epidermal growth factor, 5 ng/mL heparin, 0.2 μg/mL insulin and 5 μg/mL BSA; Life Technologies) with 100 U/mL penicillin, 100 μg/mL streptomycin, 0.25 μg/mL fungizone. Confluent VSMCs were washed twice with 1×PBS to remove residual serum, passaged in 96-well or 6-well plates and incubated in parallel in M231 with 1% charcoal striped FBS with 0.1% ethanol (vehicle, control) or 10^−7 M MPA (Sigma-Aldrich) or 10^−7 M ETO (Organon) or 10^−7 M P4 (Sigma-Aldrich) for 15 min, 6, 48, and 72 h. VSMCs were then washed with ice-cold PBS and stored at −80° C. for further RNA and protein analyses.
For qRT-PCR, 500 ng total RNA from each treatment was reverse transcribed by using RETROscript kit (Ambion). qRT-PCR was performed using the TaqMan Gene Expression Assay Kits for H19, TMEM119, RARRES1, and CCL2 (TaqMan ID # Hs00262142_g1, Hs01938722_m1, Hs00161204_m1 and Hs00234140_m1, respectively; Life Technologies) as described previously (36). Expression of the target mRNAs was normalized to β-actin levels, and the 2^−ΔΔCT was used to calculate relative expression levels.
(In general: Quantitative PCR measures a nucleic acid by following its amplification.)

A further test deals with endometrial VSMCs. The test can be described thus: αSMA and PCNA double-immunostaining of endometrium of oophorectomized guinea pigs (OVX-GPs). The note with it: 21-d time-release pellets, mean±SEM. In kind it is in vivo, guinea pig. The text has this: After receiving written informed consent at New York University under Institutional Review Board approval, paraffin sections were derived from banked paired endometrial tissues obtained before and after Depo therapy by […] biopsy from each reproductive age woman with regular menstrual cycles during the secretory phase (n=6). Based on an established animal model for LAPC-induced AUB in humans (9), nulliparous adult female pigmented GPs (weighing 525-775 g) were used in experimental procedures conforming to National Health and Medical Research Council Guidelines of Australia and approved by the Animal Ethics Committee of The University of Western Australia. GPs (n=24) were subjected to bilateral OVX and given subcutaneous 21-d time-release pellets (Innovative Research of America) containing MPA (50 mg/d; n=6) or 17β-Estradiol (E2) (0.1 mg/d; n=6), both MPA and E2 (n=6), or no pellets (n=6). On day 20 of exposure to the pellets, GPs were killed with pentobarbital and uterine tissues fixed in 10% formalin and processed for paraffin embedding. In vitro experiments used aortic VSMCs from premenopausal women (n=2) (Life Technologies). Paraffin sections (5 μm) from paired pre- vs. post-Depo treated human or GP endometria were deparaffinized, boiled in citrate buffer (pH: 6.0) and then incubated in methanol containing 3% H2O2. Following 10% normal horse serum blocking (Vector Labs), slides were incubated overnight at 4° C. with mouse anti-PCNA monoclonal antibody (EMD Millipore). After several rinses in Tris-buffered saline containing 0.1% tween-20 (TBS-T; pH 7.6) slides were then incubated with biotinylated anti-mouse IgG (Vector Labs) for 30 min, then with a streptavidin-peroxidase complex (Elite ABC kit; Vector Labs) for 30 min and with diaminobenzidine (DAB; Vector Labs) for 3 min. […] Slides were counterstained by Hematoxylin and evaluated by histological scoring (HSCORE), as described previously (34). (See details for HSCORE evaluation for αSMA immunoreactivity and PCNA quantitation in SI Materials and Methods). Staining intensity for α-SMA was semiquantitatively evaluated by Q:1 HSCORE (1). […] An HSCORE value was determined for each specimen by using the formula HSCORE=ΣPi (i+1), where Pi is the percentage of stained cells in each intensity category (i.e., i=1, 2, or 3). Quantitation of PCNA immunostaining was determined by counting the number of PCNA^+ (brown) and PCNA^- cell nuclei (blue) in VSMCs (αSMA immunostained cells) and obtaining the ratio of numbers of PCNA^+ cell nuclei to total αSMA^+ cells. For each slide, three different fields were evaluated microscopically at 200× magnification. Slides were evaluated at different times by two investigators blinded to tissue source, and the average HSCORE or percentage of cells with PCNA^+ nuclei to total αSMA^+ cells used.

Entries after “also recorded” stand apart in the source; their conditions may differ.

For `C#C[C@]1(O)CC[C@H]2[C@@H]3CCC4=CC(=O)CC[C@@H]4[C@H]3C(=C)C[C@@]21CC` [ETO, etonogestrel], in the test on VSMCs, the “CCL2 mRNA levels” value is “down-regulated; also recorded: significant inhibition”, the “H19 mRNA” value is recorded as “up-regulated”, the “RARRES1 mRNA” value was “down-regulated” and the “TMEM119 mRNA” value is reported as “up-regulated”.

In the case of `CC(=O)O[C@]1(C(C)=O)CC[C@H]2[C@@H]3C[C@H](C)C4=CC(=O)CC[C@]4(C)[C@H]3CC[C@@]21C` [MPA, medroxyprogesterone acetate], the “PCNA+ endometrial VSMCs” value in the test with endometrial VSMCs (n=6, control 11.2%±2.3) is 10.2%±2.8. The “αSMA HSCORE” value in the test on endometrial VSMCs (n=6, control 135.2±26.0) is 83.50±9.0. In addition, in the test on VSMCs, the “CCL2 mRNA levels” value is reported as “significant inhibition”, the “H19 mRNA” value is reported as “up-regulated”, the “RARRES1 mRNA” value is “down-regulated” and the “TMEM119 mRNA” value is “up-regulated”. In addition, the “CCL2 mRNA levels” value in the test on VSMCs (listed as WA) is on record as “down-regulated”.
